This is an account of results in patent US10166218B2, “3-(1H-indol-2-yl)-1H-pyrazolo[3,4-C]pyridines and therapeutic uses thereof” (Samumed, LLC, priority 2015, dated 2019).

This assay deals with Wnt activity (Sp5-Luc reporter, TCF/LEF binding sites) in SW480 colon carcinoma cells. Put plainly: Screening assay for Wnt activity: Sp5-Luc reporter gene assay in stably transduced SW480 cells. Type of assay: cell-based. Conditions: Homo sapiens; for EC50: overnight incubation; for inhibition at 10 µM: read-out: percent inhibition at 10 μM (given for EC50 of >10 μM). In a few lines:
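SW480 cells stably transduced with an Sp5 promoter (eight TCF/LEF sites)–firefly luciferase lentiviral reporter, plated at 4,000 cells/well in 1% FBS medium with compounds (10-point 1:3 series from 10 μM, 0.1% DMSO) overnight at 37 °C. BrightGlo luminescence normalised to DMSO; EC50 by four-parameter fit, else % inhibition at 10 μM.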
In general terms: Reporter assays use an easily measured gene product as a stand-in for the process of interest.

Bounds are passed on as bounds.

By EC50 is commonly meant the concentration at which the effect is half-maximal. Low values mean greater potency, high ones weaker potency. `Cc1ccncc1-c1cc2c(-c3cc4c(-c5cccc(F)c5)cccc4[nH]3)n[nH]c2cn1` [Compound 5, 3-(4-(3-Fluorophenyl)-1H-indol-2-yl)-5-(4-methylpyridin-3-yl)-1H-pyrazolo [3,4-c]pyridine]: the EC50 stood at 0.59 µM.

For orientation: inhibition means the relative decrease from the control value, in per cent. For the compound `O=C(Nc1cncc(-c2cc3c(-c4cc5c(-c6cccc(F)c6)cccc5[nH]4)n[nH]c3cn2)c1)c1ccccc1` [Compound 11, N-(5-(3-(4-(3-Fluorophenyl)-1H-indol-2-yl)-1H-pyrazolo[3,4-c]pyridin-5-yl)pyridin-3-yl)benzamide], the inhibition at 10 µM was 50.2% and the EC50 is above 10 µM. Take `O=C(Nc1cncc(-c2cc3c(-c4cc5c(-c6cccc(F)c6)cccc5[nH]4)n[nH]c3cn2)c1)C1CCC1` [Compound 21, N-(5-(3-(4-(3-Fluorophenyl)-1H-indol-2-yl)-1H-pyrazolo[3,4-c]pyridin-5-yl)pyridin-3-yl)cyclobutanecarboxamide]: the midpoint of the response, the EC50, lay at 1.51 µM. Same read-out and setting: the value for `CC(C)CC(=O)Nc1cncc(-c2cc3c(-c4cc5c(-c6ccc(F)cc6)cccc5[nH]4)n[nH]c3cn2)c1` [Compound 30, N-(5-(3-(4-(4-Fluorophenyl)-1H-indol-2-yl)-1H-pyrazolo[3,4-c]pyridin-5-yl)pyridin-3-yl)-3-methylbutanamide] was 1.54 µM; that for `O=C(Cc1ccccc1)Nc1cncc(-c2cc3c(-c4cc5c(-c6ccc(F)cc6)cccc5[nH]4)n[nH]c3cn2)c1` [Compound 38, N-(5-(3-(4-(4-Fluorophenyl)-1H-indol-2-yl)-1H-pyrazolo[3,4-c]pyridin-5-yl)pyridin-3-yl)-2-phenylacetamide] was 4.31 µM. As for `O=C(Nc1cncc(-c2cc3c(-c4cc5c(-c6ccc(F)cc6)cccc5[nH]4)n[nH]c3cn2)c1)C1CCCCC1` [Compound 51, N-(5-(3-(4-(4-Fluorophenyl)-1H-indol-2-yl)-1H-pyrazolo[3,4-c]pyridin-5-yl)pyridin-3-yl)cyclohexanecarboxamide], the inhibition at 10 µM was 32.6% and the 50% effective concentration (EC50) is above 10 µM. Turning to `Fc1ccc(-c2cccc3[nH]c(-c4n[nH]c5cnc(-c6cncnc6)cc45)cc23)cc1` [Compound 55, 3-(4-(4-Fluorophenyl)-1H-indol-2-yl)-5-(pyrimidin-5-yl)-1H-pyrazolo[3,4-c]pyridine], the EC50 came to 4.14 µM.

With `CC(C)C(=O)Nc1cncc(-c2cc3c(-c4cc5c(-c6ccccc6F)cccc5[nH]4)n[nH]c3cn2)c1` [Compound 65, N-(5-(3-(4-(2-Fluorophenyl)-1H-indol-2-yl)-1H-pyrazolo[3,4-c]pyridin-5-yl)pyridin-3-yl)isobutyramide], the inhibition at 10 µM stood at 35.8% and the concentration for a half-maximal effect (EC50) is above 10 µM.

For the compound `CCCCC(=O)Nc1cncc(-c2cc3c(-c4cc5c(-c6ccccc6F)cccc5[nH]4)n[nH]c3cn2)c1` [Compound 75, N-(5-(3-(4-(2-Fluorophenyl)-1H-indol-2-yl)-1H-pyrazolo[3,4-c]pyridin-5-yl)pyridin-3-yl)pentanamide], the inhibition at 10 µM was determined as 11.1% and the EC50 is above 10 µM.

Compound `O=C(Nc1cncc(-c2cc3c(-c4cc5c(-c6ccccc6F)cccc5[nH]4)n[nH]c3cn2)c1)C1CC1` [Compound 76, N-(5-(3-(4-(2-Fluorophenyl)-1H-indol-2-yl)-1H-pyrazolo[3,4-c]pyridin-5-yl)pyridin-3-yl)cyclopropanecarboxamide] displayed an EC50 of 0.94 µM. With `Cc1ccncc1-c1cc2c(-c3cc4c(-c5ccncc5)cccc4[nH]3)n[nH]c2cn1` [Compound 117, 5-(4-Methylpyridin-3-yl)-3-(4-(pyridin-4-yl)-1H-indol-2-yl)-1H-pyrazolo [3,4-c]pyridine], the inhibition at 10 µM stood at 43.1% and the EC50 was above 10 µM. `CC(C)(C)C(=O)Nc1cncc(-c2cc3c(-c4cc5c(-c6ccncc6)cccc5[nH]4)n[nH]c3cn2)c1` [Compound 120, N-(5-(3-(4-(Pyridin-4-yl)-1H-indol-2-yl)-1H-pyrazolo[3,4-c]pyridin-5-yl)pyridin-3-yl)pivalamide] had a 50% effective concentration (EC50) of 0.194 µM. `CC(C)(C)CC(=O)Nc1cncc(-c2cc3c(-c4cc5c(-c6ccncc6)cccc5[nH]4)n[nH]c3cn2)c1` [Compound 128, 3,3-Dimethyl-N-(5-(3-(4-(pyridin-4-yl)-1H-indol-2-yl)-1H-pyrazolo[3,4-c]pyridin-5-yl)pyridin-3-yl)butanamide]: the inhibition at 10 µM worked out at 46.5% and the EC50 is above 10 µM. Compound `O=C(Nc1cncc(-c2cc3c(-c4cc5c(-c6ccncc6)cccc5[nH]4)n[nH]c3cn2)c1)C1CCC1` [Compound 133, N-(5-(3-(4-(Pyridin-4-yl)-1H-indol-2-yl)-1H-pyrazolo[3,4-c]pyridin-5-yl)pyridin-3-yl)cyclobutanecarboxamide] registered an EC50 of 0.401 µM. In other words, the sub-micromolar range. On the same count and under the same terms, the value for `c1cc(-c2ccncc2)c2cc(-c3n[nH]c4cnc(-c5cncnc5)cc34)[nH]c2c1` [Compound 139, 3-(4-(Pyridin-4-yl)-1H-indol-2-yl)-5-(pyrimidin-5-yl)-1H-pyrazolo[3,4-c]pyridine] was 1.23 µM. For the compound `O=C(Nc1cncc(-c2cc3c(-c4cc5c(N6CCCCC6)cccc5[nH]4)n[nH]c3cn2)c1)C1CC1` [Compound 188, N-(5-(3-(4-(Piperidin-1-yl)-1H-indol-2-yl)-1H-pyrazolo[3,4-c]pyridin-5-yl)pyridin-3-yl)cyclopropanecarboxamide], a half-maximal response (EC50) required 2.42 µM. Same read-out and setting: as for `FC1(F)CCN(Cc2cncc(-c3cc4c(-c5cc6c(N7CCCCC7)cccc6[nH]5)n[nH]c4cn3)c2)C1` [Compound 194, 5-(5-((3,3-Difluoropyrrolidin-1-yl)methyl)pyridin-3-yl)-3-(4-(piperidin-1-yl)-1H-indol-2-yl)-1H-pyrazolo[3,4-c]pyridine], the figure is 1.83 µM; as for `CN1CCN(c2cccc3[nH]c(-c4n[nH]c5cnc(-c6cncc(NC(=O)C7CCC7)c6)cc45)cc23)CC1` [Compound 245], 1.97 µM; as for `CC(C)(C)CC(=O)Nc1cncc(-c2cc3c(-c4cc5ccccc5[nH]4)n[nH]c3cn2)c1` [Compound 268, N-(5-(3-(1H-Indol-2-yl)-1H-pyrazolo[3,4-c]pyridin-5-yl)pyridin-3-yl)-3,3-dimethylbutanamide], 0.615 µM.

`O=C(Nc1cncc(-c2cc3c(-c4cc5ccccc5[nH]4)n[nH]c3cn2)c1)C1CCCCC1` [Compound 275, N-(5-(3-(1H-Indol-2-yl)-1H-pyrazolo[3,4-c]pyridin-5-yl)pyridin-3-yl) cyclohexanecarboxamide] yielded an EC50 of 0.635 µM. This EC50 and that of the compound before are within 1.5-fold of each other. The same measure, in the same setting: as for `CS(=O)(=O)NCc1cc(F)cc(-c2cccc3[nH]c(-c4n[nH]c5cnc(-c6cncc(NC(=O)c7ccccc7)c6)cc45)cc23)c1` [Compound 487, N-(5-(3-(4-(3-Fluoro-5-(methylsulfonamidomethyl)phenyl)-1H-indol-2-yl)-1H-pyrazolo[3,4-c]pyridin-5-yl)pyridin-3-yl)benzamide], the figure is 0.8 µM; as for `Nc1cncc(-c2cc3c(-c4cc5ncccc5[nH]4)n[nH]c3cn2)c1` [Compound 507, 5-(3-(1H-Pyrrolo[3,2-b]pyridin-2-yl)-1H-pyrazolo[3,4-c]pyridin-5-yl) pyridin-3-amine], 0.248 µM. Consider `c1cnc2cc(-c3n[nH]c4cnc(-c5cncc(CNCC6CCCC6)c5)cc34)[nH]c2c1` [Compound 529, 1-(5-(3-(1H-Pyrrolo[3,2-b]pyridin-2-yl)-1H-pyrazolo[3,4-c]pyridin-5-yl)pyridin-3-yl)-N-(cyclopentylmethyl)methanamine], for which the half-maximal effective concentration (EC50) came out at 2.31 µM. This EC50 is about 9.3-fold higher than that of the compound before.
